Measurements published in patent US6723680B2, “Composition for regulation of gametophytic self-incompatibility, control method of gametophytic self-incompatibility of a plant and the plant self-pollinated by using said control method” (Istech Co., Ltd., priority 2000, dated 2004).
Where two headings read alike, the source gives them in different places.

Tests used:
Type in all cases: in vivo
[1] = system: wild-type tomato; conditions: for Fruition rate: siloxane spreader 0.0335%, 4 days before full blooming; for concentration in which harmful effect of a medicine occurred: in vivo
Protocol: To investigate the fruition rate and harmful effects of a medicine according to the concentration of style-specific RNase inhibitors, ZnSO4 and CuSO4, style-specific RNase inhibitors of the present invention, were treated to wild-type tomato with various concentration in 4 days before full blooming.
Furthermore, to maximize the efficiency of the style-specific RNase inhibitor of the present invention as fruition control agents, ZnSO4 or CuSO4 was mixed with spreader of hexaconazole, siloxane and alkylaryl polyethoxylate class according to most appropriate usage amount by the manufacturer, and treated.
A composition mixed with the spreader of siloxane class (brand name:silhouette, Dongbu precision chemical company, Korea) to 0.0335% was prepared and the composition was treated to wild-type tomato.

[2] = system: wild-type tomato and Fuji apple; conditions: for the highest concentration not showing harmful effects of a medicine: in vivo; for the lowest concentration showing inhibiting effect: treated at the early blooming period
Protocol: Moreover, to investigate preferable concentration of treatment of the regulation composition for gametophytic self-incompatibility of the present invention, […] ppm CuSO4 and ZnSO4 were treated to wild-type tomato and Fuji apple at the early blooming period and the harmful effects of a medicine and fruition rates were investigated (see FIGS. 6 and 7). Since absorption rate of the regulation composition for gametophytic self-incompatibility of the present invention can be increased by treating it with a spreader in cultivating fruit trees, the CuSO4 and ZnSO4 were treated with a spreader by a method of spraying on the fruit trees at a specific period, that is, the early blooming period. Thus, it was shown that fruits and plants that are pollinated by self-pollen could be acquired by the treatment of a specific concentration of CuSO4 and ZnSO4 in wild-type tomato and Fuji apple without harmful effects of the medicine. From the results, it can be concluded that an inhibitor composition of a style-specific RNase of the present invention is effective in inhibition of a style-specific RNase without respect to species, and preferable concentration of CuSO4, which is treated at the early blooming period, is at 100˜700 ppm and preferable concentration of ZnSO4 is at 100˜800 ppm. Furthermore, very high pollination rate, without harmful effects of a medicine, could be achieved by spraying the inhibitor composition for gametophytic self-incompatibility of the present invention, which was mixed with the desirable amount of spreader according to the manufacturers' instruction. Among the spreaders, the spreader of hexaconazole class, siloxane class and alkylaryl polyethoxylate class is preferable to achieve high fruition rate. The preferable concentration of the inhibitor composition for gametophytic self-incompatibility of the present invention was shown in table 1. When CuSO4 is used as an effective component of the style-specific RNase inhibitor as shown in the table 1, if the concentration of CuSO4 is below 100 ppm, it is difficult to achieve a stable fruition rate over 70% because it cannot inhibit RNase activity appropriately, on the other hand, if the concentration of CuSO4 is over 700 ppm, it is not economical because it can induce harmful effects of a medicine. Furthermore, when ZnSO4 is used as an effective component of the style-specific RNase inhibitor, if the concentration of ZnSO4 is below 100 ppm, it is difficult to achieve a stable fruition rate over 70% because it cannot inhibit RNase activity appropriately, on the other hand, if the concentration of ZnSO4 is over 800 ppm, it is not economical because it can induce harmful effects of a medicine.

[3] = system: wild-type tomato; test: Fruition rate of wild-type tomato according to blooming period of treatment; conditions: 1 mM
Protocol: To test the effect of a style-specific RNase inhibitor in a practical cultivating environment, the style-specific RNase of the present invention was treated to the wild-type tomato that was cultivated in a greenhouse for research (located in Taegu Catholic University, Kyungsan city, Kyungsangpukdo, Republic of korea). In the present invention, the experiment was performed under the environmental condition that can keep the wild-type tomato, a representative plant having gametophytic self-incompatibility, a single species genetically.
To determine the treatment period of a style-specific RNase inhibitor, the inhibitor was treated at the early blooming period (budding formation period˜prior to fill blooming), the middle blooming period (full blooming) and the late blooming period (1 day after full blooming˜falling period of petal) respectively. The inhibitors, ZnSO4 and CuSO4 were then added with 1 mM (about 288 ppm) and 1 mM (about 250 ppm) respectively at 9˜11 a.m., when pollination of plant occurs most actively. Fruition rate was investigated, and the results of 4 times repeated experiments for 25 blooming periods (reproductive organ containing a stamen, a stigma, a petal, etc.) in each experiment were shown in Table 3 with the statistic value.

[4] = system: Fuji apple; conditions: for Fruition rate: siloxane spreader 0.0335%, 4 days before full blooming; for concentration in which harmful effect of a medicine occurred: in vivo
Protocol: To investigate the fruition rate and harmful effect of a medicine according to the concentration of style-specific RNase inhibitors, ZnSO4 and CuSO4, style-specific RNase inhibitors of the present invention, were treated to Fuji apple with various concentration in 4 days before full blooming.
Furthermore, to maximize the efficiency of the style-specific RNase inhibitor of the present invention as fruition control agents, ZnSO4 or CuSO4 was mixed with the spreader of siloxane class (brand name silhouette, Dongbu precision chemical company, Korea) at 0.0335%, and treated to the Fuji apple.

Structure (SMILES): O=S(=O)([O-])[O-].[Zn+2] [ZnSO4]
- Fruition rate ([1]; 20 ppm): 0%
- Fruition rate ([1]; 40 ppm): 13%
- Fruition rate ([1]; 60 ppm): 31%
- Fruition rate ([1]; 80 ppm): 61%
- Fruition rate ([1]; 100 ppm): 99%
- Fruition rate ([1]; 200 ppm): 98%
- Fruition rate ([1]; 300 ppm): 93%
- Fruition rate ([1]; 400 ppm): 88%
- Fruition rate ([1]; 500 ppm): 85%
- Fruition rate ([1]; 600 ppm): 84%
- Fruition rate ([1]; 700 ppm): 74%
- Fruition rate ([1]; 800 ppm): 71%
- Fruition rate ([1]; 900 ppm): 62%
- Fruition rate ([1]; 1000 ppm): 0%
- Fruition rate ([1]; 1100 ppm): 0%
- Fruition rate ([1]; 1200 ppm): 0%
- Fruition rate ([1]; 1300 ppm): 0%
- Fruition rate ([1]; 1400 ppm): 0%
- Fruition rate ([1]; 1500 ppm): 0%
- concentration in which harmful effect of a medicine occurred [1]: ≥ 900 ppm
- the highest concentration not showing harmful effects of a medicine [2]: 800 ppm
- the lowest concentration showing inhibiting effect [2]: 100 ppm
- Fruition rate ([3]; 1 day after full blooming): 0
- Fruition rate ([3]; 1 day before blooming): 0
- Fruition rate ([3]; 2 days after full blooming): 0
- Fruition rate ([3]; 2 days before blooming): 0
- Fruition rate ([3]; 3 days before blooming): >30%
- Fruition rate ([3]; 4 days before blooming): >71%
- Fruition rate ([3]; 5 days before blooming): >83%
- Fruition rate ([3]; 6 days before blooming): >90%
- Fruition rate ([3]; 7 days before blooming): >92%
- Fruition rate ([3]; full blooming): 0
- Fruition rate ([4]; 20 ppm): 0%
- Fruition rate ([4]; 40 ppm): 5%
- Fruition rate ([4]; 60 ppm): 17%
- Fruition rate ([4]; 80 ppm): 36%
- Fruition rate ([4]; 100 ppm): 72%
- Fruition rate ([4]; 200 ppm): 79%
- Fruition rate ([4]; 300 ppm): 93%
- Fruition rate ([4]; 400 ppm): 88%
- Fruition rate ([4]; 500 ppm): 85%
- Fruition rate ([4]; 600 ppm): 84%
- Fruition rate ([4]; 700 ppm): 74%
- Fruition rate ([4]; 800 ppm): 70%
- Fruition rate ([4]; 900 ppm): 44%
- Fruition rate ([4]; 1000 ppm): 27%
- Fruition rate ([4]; 1100 ppm): 9%
- Fruition rate ([4]; 1200 ppm): 0%
- Fruition rate ([4]; 1300 ppm): 0%
- Fruition rate ([4]; 1400 ppm): 0%
- Fruition rate ([4]; 1500 ppm): 0%
- concentration in which harmful effect of a medicine occurred [4]: ≥ 900 ppm

Structure (SMILES): O=S(=O)([O-])[O-].[Cu+2] [CuSO4]
- Fruition rate ([1]; 20 ppm): 0%
- Fruition rate ([1]; 40 ppm): 15%
- Fruition rate ([1]; 60 ppm): 41%
- Fruition rate ([1]; 80 ppm): 59%
- Fruition rate ([1]; 100 ppm): 97%
- Fruition rate ([1]; 200 ppm): 92%
- Fruition rate ([1]; 300 ppm): 88%
- Fruition rate ([1]; 400 ppm): 85%
- Fruition rate ([1]; 500 ppm): 77%
- Fruition rate ([1]; 600 ppm): 73%
- Fruition rate ([1]; 700 ppm): 73%
- Fruition rate ([1]; 800 ppm): 44%
- Fruition rate ([1]; 900 ppm): 16%
- Fruition rate ([1]; 1000 ppm): 7%
- Fruition rate ([1]; 1100 ppm): 0%
- Fruition rate ([1]; 1200 ppm): 0%
- Fruition rate ([1]; 1300 ppm): 0%
- Fruition rate ([1]; 1400 ppm): 0%
- Fruition rate ([1]; 1500 ppm): 0%
- concentration in which harmful effect of a medicine occurred [1]: ≥ 800 ppm
- the highest concentration not showing harmful effects of a medicine [2]: 700 ppm
- the lowest concentration showing inhibiting effect [2]: 100 ppm
- Fruition rate ([3]; 1 day after full blooming): 0
- Fruition rate ([3]; 1 day before blooming): 0
- Fruition rate ([3]; 2 days after full blooming): 0
- Fruition rate ([3]; 2 days before blooming): 0
- Fruition rate ([3]; 3 days before blooming): >37%
- Fruition rate ([3]; 4 days before blooming): >74%
- Fruition rate ([3]; 5 days before blooming): >86%
- Fruition rate ([3]; 6 days before blooming): >91%
- Fruition rate ([3]; 7 days before blooming): >91%
- Fruition rate ([3]; full blooming): 0
- Fruition rate ([4]; 20 ppm): 0%
- Fruition rate ([4]; 40 ppm): 0%
- Fruition rate ([4]; 60 ppm): 11%
- Fruition rate ([4]; 80 ppm): 39%
- Fruition rate ([4]; 100 ppm): 70%
- Fruition rate ([4]; 200 ppm): 76%
- Fruition rate ([4]; 300 ppm): 88%
- Fruition rate ([4]; 400 ppm): 85%
- Fruition rate ([4]; 500 ppm): 77%
- Fruition rate ([4]; 600 ppm): 73%
- Fruition rate ([4]; 700 ppm): 73%
- Fruition rate ([4]; 800 ppm): 52%
- Fruition rate ([4]; 900 ppm): 31%
- Fruition rate ([4]; 1000 ppm): 21%
- Fruition rate ([4]; 1100 ppm): 11%
- Fruition rate ([4]; 1200 ppm): 0%
- Fruition rate ([4]; 1300 ppm): 0%
- Fruition rate ([4]; 1400 ppm): 0%
- Fruition rate ([4]; 1500 ppm): 0%
- concentration in which harmful effect of a medicine occurred [4]: ≥ 800 ppm
